Results from US8609695B2, “Methods of treating and/or suppressing insulin resistance” (Endorecherche, Inc., priority 1999, dated 2013).

Key:
[1] = tested on: intact (INT) and ovariectomized (OVX) female rats; experiment: EM-652.HCl and DHEA, energy balance and lipid-lipoprotein metabolism, high sucrose-high fat diet (Example 9); assay type: in vivo; details: 20 days, EM-652.HCl 0.5 mg/rat per os, DHEA 20 mg/rat topical
Method: The objective of this study was to determine the effects of EM-652.HCl and DHEA, administered alone or in combination, on energy balance and lipid-lipoprotein metabolism in rats. The effect of treatments was evaluated on many parameters following a 20-day treatment with EM-652.HCl (0.5 mg/rat, ˜2.5 mg/kg, per os) and DHEA (20 mg/rat, ˜100 mg/kg, topical application), administered alone or in combination, to intact (INT) and ovariectomized (OVX) female rats receiving a high sucrose-high fat diet. For comparison, one intact and ovariectomized control group received the enriched diet while other control animals (intact and OVX) received the commercial rodent diet.
d) Diet: • During the acclimation period, rats received a commercial rodent diet (Purina, #5075) and tap water ad libitum. During study period, groups 1 & 2 continued to receive the commercial diet while groups 3 to 10 received a high sucrose-high fat diet composed of (g/100 g): Sucrose, 45; Corn oil, 10; Lard, 10; Casein, 22.5; dl-Methionine, 0.3; Vitamin mix, 1.2; AIN-76 mineral mix, 5.5; Fiber, 5.5.44
80 rats were assigned to 10 groups of 8 rats for conduct of the study outlined below.
On day 0 of the study, rats from the appropriate groups were ovariectomized (by bilateral flank incision) under Isoflurane anesthesia. Intact rats were sham-operated.
Administration of the tested compounds or vehicle started the day following the ovariectomy (Day 1). […] Rats from control groups received the vehicle alone (per os and topically). Rats were killed on day 21 of the study approximately 24 hours after the last dosing.
Rats were weighed on day 0 (surgery), every 2 days during the study period and on the day of necropsy. Body weights were recorded with a precision of 1.0 g.
On day 21 of the study, overnight fasted rats were killed approximately 24 hours after the last dosing. They were anesthesized with ketamine-xylazine and blood drawn by cardiac punction.
Blood lipids (Total cholesterol and Triglycerides) were measured on frozen serum samples using the Boehringer Mannheim Diagnostic Hitachi 911 Analyzer (Boehringer Mannheim Diagnostic Laboratory Systems). Circulating hormones and substrates (Insulin, leptin, glucose) were measured on serum samples as follow: • Insulin: Linco RIA kit • Glucose: Beckmann automatic glucose analyser • Leptin: Linco RIA kit Organs and Tissues Collected
The following tissues were collected and weighed for all animals: • Muscle (soleus and VLM), fat (retroperitoneal and inguinal), and brown adipose tissue.
A piece of liver was frozen for later determination of TG and CHOL content (Folchis method) while the other tissues were processed for determination of LPL activity.

[2] = tested on: ovariectomized female rats; experiment: 20-day treatment with EM-652.HCl, estradiol and DHEA, body fat (Example 6); assay type: in vivo, Rattus norvegicus; details: OVX rats; for decrease of body fat / decrease of retroperitoneal adipose tissue: 20 days; for Retroperitoneal adipose tissue / Fat %: enriched carbohydrate diet, 20 days oral, EM-652.HCl 0.5, E2 0.5, DHEA 100 mg/rat; for Fat %: DEXA day 21
Source text: d) Diet: Certified Rodent feed (Lab Diet #5002, pellets) and tap water were provided ad libitum during the acclimation period. During the study period, the rats received an enriched carbonhydrate diet ad libitum. The enriched diet (diet #3) was composed of (g/100 g): Corn starch, 31.2; Dextrose, 31.2; Casein, 20.0; Corn oil, 6.4; dl-Methionine, 0.3; Vitamin mix, 1.0; AIN-76 mineral mix, 4.9; Fiber, 5.0.
80 rats were assigned to 8 groups of 10 rats for the conduct of the study outlined below:
On day 0 of the study, rats from groups 2 to 8 were ovariectomized, by bilateral flank incision, under Isoflurane-induced anesthesia. Rats from group 1 were sham-operated.
The administration of the test articles or vehicle began on Day 1 (the day following the ovariectomy). The tested compounds were given as suspensions in 0.4% methylcellulose by oral gavage (0.5 ml/gavage) for 20 days.
On day 21 of the study (prior to the necropsy), body composition was determined on whole body skeleton of animals under Isoflurane-induced anesthesia using dual energy x-ray absorptiometry (DEXA; QDR 4500A, Hologic) in order to determine the effect of treatments on fat percentage.
Right and left retroperitoneal adipose tissue were collected and weighed.

Row | SMILES | Brown adipose tissue Lipoprotein lipase activity ([1]; OVX rats) [μU/g protein] | Brown adipose tissue weight ([1]; OVX rats) [g] | Plasma glucose ([1]; OVX rats) [mmol/L] | Plasma insulin ([1]; OVX rats) [nmol/L] | Plasma leptin ([1]; OVX rats) [ng/mL] | Plasma total cholesterol ([1]; OVX rats) [mmol/L] | Plasma triglycerides ([1]; OVX rats) [mmol/L] | Soleus muscle Lipoprotein lipase activity ([1]; OVX rats) [μU/g protein] | Soleus muscle weight ([1]; OVX rats) [g] | Total weight ([1]; OVX rats) [g] | VastusLateralis muscle Lipoprotein lipase activity ([1]; OVX rats) [μU/g protein] | VastusLateralis muscle weight ([1]; OVX rats) [g] | White adipose tissue inguinal Lipoprotein lipase activity ([1]; OVX rats) [μU/g protein] | White adipose tissue inguinal weight ([1]; OVX rats) [g] | White adipose tissue retroperitoneal Lipoprotein lipase activity ([1]; OVX rats) [μU/g protein] | White adipose tissue retroperitoneal weight ([1]; OVX rats) [g] | liver total cholesterol ([1]; OVX rats) [mmol/L] | liver triglycerides ([1]; OVX rats) [mmol/L] | Brown adipose tissue Lipoprotein lipase activity ([1]; sham rats) [μU/g protein] | Brown adipose tissue weight ([1]; sham rats) [g] | further results
1 | C[C@]12CC[C@H](O)CC1=CC[C@@H]1[C@@H]2CC[C@]2(C)C(=O)CC[C@@H]12 [DHEA, dehydroepiandrosterone] | 1069 ± 96 | 0.342 ± 0.049 | 8.64 ± 0.24 | 0.052 ± 0.009 | 2.757 ± 0.631 | 1.57 ± 0.12 | 0.62 ± 0.08 | 45.9 ± 4.7 | 0.103 ± 0.005 | 274 ± 9 | 13.1 ± 5.4 | 0.920 ± 0.049 | 583 ± 134 | 0.885 ± 0.156 | 1905 ± 112 | 1.699 ± 0.151 | 0.079 ± 0.005 | 0.165 ± 0.047 | 982 ± 72 | 0.373 ± 0.036 | Plasma glucose ([1]; sham rats): 8.05 ± 0.51 mmol/L; Plasma insulin ([1]; sham rats): 0.048 ± 0.012 nmol/L; Plasma leptin ([1]; sham rats): 1.977 ± 0.255 ng/mL; Plasma total cholesterol ([1]; sham rats): 1.59 ± 0.17 mmol/L; Plasma triglycerides ([1]; sham rats): 0.61 ± 0.11 mmol/L; Soleus muscle Lipoprotein lipase activity ([1]; sham rats): 53.6 ± 7.5 μU/g protein; Soleus muscle weight ([1]; sham rats): 0.105 ± 0.004 g; Total weight ([1]; sham rats): 252 ± 5 g; VastusLateralis muscle Lipoprotein lipase activity ([1]; sham rats): 11.5 ± 2.0 μU/g protein; VastusLateralis muscle weight ([1]; sham rats): 0.893 ± 0.043 g; White adipose tissue inguinal Lipoprotein lipase activity ([1]; sham rats): 194 ± 45 μU/g protein; White adipose tissue inguinal weight ([1]; sham rats): 0.659 ± 0.075 g; White adipose tissue retroperitoneal Lipoprotein lipase activity ([1]; sham rats): 1177 ± 188 μU/g protein; White adipose tissue retroperitoneal weight ([1]; sham rats): 1.067 ± 0.149 g; liver total cholesterol ([1]; sham rats): 0.068 ± 0.003 mmol/L; liver triglycerides ([1]; sham rats): 0.038 ± 0.007 mmol/L; decrease of body fat [2]: 59%; decrease of retroperitoneal adipose tissue [2]: 75%; Retroperitoneal adipose tissue [2]: 0.92 ± 0.17 g; Fat % [2]: 7.8 ± 0.8%
2 | CC1=C(c2ccc(O)cc2)[C@H](c2ccc(OCCN3CCCCC3)cc2)Oc2cc(O)ccc21.Cl [EM-652.HCl, (S)-(+)-7-hydroxy-3-(4′-hydroxyphenyl)-4-methyl-2-(4″-(2′″-piperidino-ethoxy)phenyl)-2H-1-benxopyran hydrochloride] | 678 ± 65 | 0.408 ± 0.025 | 9.06 ± 0.30 | 0.089 ± 0.013 | 1.989 ± 0.326 | 1.15 ± 0.11 | 0.97 ± 0.16 | 39.1 ± 5.0 | 0.104 ± 0.004 | 268 ± 5 | 10.8 ± 3.2 | 0.944 ± 0.030 | 310 ± 63 | 0.709 ± 0.085 | 1612 ± 186 | 1.370 ± 0.211 | 0.092 ± 0.006 | 0.348 ± 0.078 | 1196 ± 83 | 0.306 ± 0.044 | Plasma glucose ([1]; sham rats): 9.03 ± 0.49 mmol/L; Plasma insulin ([1]; sham rats): 0.057 ± 0.004 nmol/L; Plasma leptin ([1]; sham rats): 2.019 ± 0.402 ng/mL; Plasma total cholesterol ([1]; sham rats): 1.15 ± 0.06 mmol/L; Plasma triglycerides ([1]; sham rats): 0.60 ± 0.12 mmol/L; Soleus muscle Lipoprotein lipase activity ([1]; sham rats): 53.9 ± 3.3 μU/g protein; Soleus muscle weight ([1]; sham rats): 0.098 ± 0.005 g; Total weight ([1]; sham rats): 238 ± 5 g; VastusLateralis muscle Lipoprotein lipase activity ([1]; sham rats): 16.2 ± 3.1 μU/g protein; VastusLateralis muscle weight ([1]; sham rats): 0.965 ± 0.034 g; White adipose tissue inguinal Lipoprotein lipase activity ([1]; sham rats): 160 ± 23 μU/g protein; White adipose tissue inguinal weight ([1]; sham rats): 0.435 ± 0.043 g; White adipose tissue retroperitoneal Lipoprotein lipase activity ([1]; sham rats): 1277 ± 56 μU/g protein; White adipose tissue retroperitoneal weight ([1]; sham rats): 1.058 ± 0.162 g; liver total cholesterol ([1]; sham rats): 0.096 ± 0.011 mmol/L; liver triglycerides ([1]; sham rats): 0.360 ± 0.102 mmol/L; decrease of body fat [2]: 46%; decrease of retroperitoneal adipose tissue [2]: 59%; Retroperitoneal adipose tissue [2]: 1.52 ± 0.18 g; Fat % [2]: 10.2 ± 1.2%
